From US9682995B2, “Amino-substituted isothiazoles” (BAYER PHARMA AKTIENGESELLSCHAFT, priority 2013, dated 2017)

Columns and labels:
human Bub1 = human Bub1 (Homo sapiens (Human), UniProt O43683); experiment: Bub1 kinase assay (TR-FRET); format: biochemical; conditions: 10 μM ATP; read-out: Bub1 avg (IC50 [mol/l])
Outline: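 His6-tagged human Bub1 catalytic domain (aa 704-1085, insect-cell expressed, ~200 ng/ml) preincubated with compound 15 min, then reacted 60 min at 22 °C with 10 μM ATP and 1 μM biotinylated peptide (final) in pH 7.5 Tris buffer. Phosphopeptide detected by TR-FRET 665/620 ratio, normalised to no-inhibitor and no-enzyme controls.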

CDK2/CycE = CDK2/CycE (Homo sapiens (Human), UniProt P24941); experiment: CDK2/CycE kinase assay (TR-FRET); format: biochemical; conditions: 10 μM ATP; read-out: CDK2 avg (IC50 [mol/l])
Outline: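 GST-tagged human CDK2 and GST-CycE from Sf9 cells (~130 ng/ml) were preincubated with compound for 15 min at 22 °C. Reaction with 10 μM ATP and 0.75 μM biotinylated peptide (final) ran 25 min at 22 °C, pH 8.0. Phospho-peptide was read by TR-FRET (665/620 nm ratio, anti-pRB antibody, Eu donor) and normalised to no-enzyme and no-inhibitor controls.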

human Bub1, sequence (O43683 704-1085): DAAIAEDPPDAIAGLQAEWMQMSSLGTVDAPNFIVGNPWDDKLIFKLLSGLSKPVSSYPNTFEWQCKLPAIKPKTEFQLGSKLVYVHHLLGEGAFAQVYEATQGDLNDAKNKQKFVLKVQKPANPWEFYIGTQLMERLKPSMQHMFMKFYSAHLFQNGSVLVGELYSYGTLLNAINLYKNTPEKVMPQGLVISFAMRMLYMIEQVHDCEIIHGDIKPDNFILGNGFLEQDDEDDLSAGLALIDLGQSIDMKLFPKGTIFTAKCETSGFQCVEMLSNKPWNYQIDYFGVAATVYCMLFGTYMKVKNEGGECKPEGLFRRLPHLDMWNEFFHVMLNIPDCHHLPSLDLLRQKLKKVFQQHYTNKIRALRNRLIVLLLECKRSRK

Row | SMILES | IC50 (human Bub1) | IC50 (CDK2/CycE)
1 | CCc1ccccc1NC(=O)c1c(C)nsc1Nc1ccncn1 [Example 2, N-(2-Ethylphenyl)-3-methyl-5-(pyrimidin-4-ylamino)-1,2-thiazole-4-carboxamide] | > 20 µM | > 20 µM
2 | CCc1cnc(Nc2snc(C)c2C(=O)Nc2ccc(F)c(F)c2)cn1 [Example 79, N-(3,4-Difluorophenyl)-5-[(5-ethylpyrazin-2-yl)amino]-3-methyl-1,2-thiazole-4-carboxamide] | > 20 µM | > 20 µM
3 | COc1cncc(Nc2snc(C)c2C(=O)Nc2ccc(F)c(F)c2)n1 [Example 72, N-(3,4-Difluorophenyl)-5-[(6-methoxypyrazin-2-yl)amino]-3-methyl-1,2-thiazole-4-carboxamide] | > 20 µM | > 20 µM
4 | COC(=O)c1cnc(Nc2snc(C)c2C(=O)Nc2ccc(F)c(F)c2)cn1 [Example 59, Methyl 5-({4-[(3,4-difluorophenyl)carbamoyl]-3-methyl-1,2-thiazol-5-yl}amino)-pyrazine-2-carboxylate] | > 20 µM | > 20 µM
5 | COC(=O)c1cncc(Nc2snc(C)c2C(=O)Nc2ccc(F)c(F)c2)n1 [Example 66, Methyl 6-({4-[(3,4-difluorophenyl)carbamoyl]-3-methyl-1,2-thiazol-5-yl}amino)-pyrazine-2-carboxylate] | > 20 µM | > 20 µM
6 | COc1ccc(NC(=O)c2c(C)nsc2Nc2nc3ccc(C)cc3s2)cn1 [Example 90, N-(6-Methoxypyridin-3-yl)-3-methyl-5-[(6-methyl-1,3-benzothiazol-2-yl)amino]-1,2-thiazole-4-carboxamide] | > 20 µM | > 20 µM
7 | COc1ccc2nc(Nc3snc(C)c3C(=O)Nc3ccc(OC)nc3)sc2c1 [Example 87, 5-[(6-Methoxy-1,3-benzothiazol-2-yl)amino]-N-(6-methoxypyridin-3-yl)-3-methyl-1,2-thiazole-4-carboxamide] | 11 µM | > 20 µM
8 | COc1ccc(NC(=O)c2c(C)nsc2Nc2nc3cccnc3s2)cn1 [Example 89, N-(6-Methoxypyridin-3-yl)-3-methyl-5-([1,3]thiazolo[5,4-b]pyridin-2-ylamino)-1,2-thiazole-4-carboxamide] | 0.21 µM | > 20 µM
9 | Cc1nsc(Nc2cnc3cc(C(F)(F)F)ccc3n2)c1C(=O)Nc1ccc(Cl)c(F)c1 [Example 68, N-(4-Chloro-3-fluorophenyl)-3-methyl-5-{[6-(trifluoromethyl)quinoxalin-2-yl]amino}-1,2-thiazole-4-carboxamide] | > 20 µM | > 20 µM
10 | CNC(=O)c1ccc(Nc2snc(C)c2C(=O)Nc2ccc(F)c(F)c2)nn1 [Example 80, 6-({4-[(3,4-Difluorophenyl)carbamoyl]-3-methyl-1,2-thiazol-5-yl}amino)-N-methylpyridazine-3-carboxamide] | > 20 µM | > 20 µM
11 | Cc1cncc(Nc2snc(C)c2C(=O)Nc2ccc(F)c(F)c2)n1 [Example 69] | > 20 µM | > 20 µM
12 | COc1ccc(NC(=O)c2c(C)nsc2Nc2nc3ccc(F)cc3s2)cn1 [Example 88, 5-[(6-Fluoro-1,3-benzothiazol-2-yl)amino]-N-(6-methoxypyridin-3-yl)-3-methyl-1,2-thiazole-4-carboxamide] | 17 µM | > 20 µM
13 | Cc1nsc(Nc2cncc(Cl)n2)c1C(=O)Nc1ccc(F)c(F)c1 [Example 71, 5-[(6-Chloropyrazin-2-yl)amino]-N-(3,4-difluorophenyl)-3-methyl-1,2-thiazole-4-carboxamide] | > 20 µM | 8.6 µM
14 | Cc1nsc(Nc2cnc(Br)cn2)c1C(=O)Nc1ccc(F)c(F)c1 [Example 77, 5-[(5-Bromopyrazin-2-yl)amino]-N-(3,4-difluorophenyl)-3-methyl-1,2-thiazole-4-carboxamide] | > 20 µM | > 20 µM
15 | COc1ccc(NC(=O)c2c(C)nsc2Nc2ncc(C(=O)N3CCOCC3)s2)cc1F [Example 93, N-(3-Fluoro-4-methoxyphenyl)-3-methyl-5-{[5-(morpholin-4-ylcarbonyl)-1,3-thiazol-2-yl]amino}-1,2-thiazole-4-carboxamide] | > 20 µM | > 20 µM
16 | CCc1ccccc1NC(=O)c1c(C)nsc1Nc1nccc(-c2ccccc2)n1 [Example 5, N-(2-Ethylphenyl)-3-methyl-5-[(4-phenylpyrimidin-2-yl)amino]-1,2-thiazole-4-carboxamide] | > 20 µM | > 20 µM
17 | COc1ccc(NC(=O)c2c(C)nsc2Nc2cnc(C(F)(F)F)cn2)cn1 [Example 85, N-(6-methoxypyridin-3-yl)-3-methyl-5-{[5-(trifluoromethyl)pyrazin-2-yl]amino}-1,2-thiazole-4-carboxamide] | > 20 µM | > 20 µM
